Measured values reported in patent publication US20140120232A1, “ACID TASTE/ACID SMELL-REDUCING AGENT” (T. HASEGAWA CO., LTD., priority 2011, published 2014).

Experiment: Sensory evaluation of Vermont drink containing the agent
Conditions: ten panels
How it was run: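 Tridecadienal or tridecatrienal isomers added at various concentrations to a Vermont-flavoured drink (apple-cider vinegar, honey, liquid sugar, citric acid, trisodium citrate, 100 mL total). Ten panelists assessed acid taste/acid smell and aldehyde-type off-odour, and the concentration giving the best acid taste/smell quality was selected.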

With CCCCC/C=C/C/C=C\CCC=O [(Z,E)-4,7-tridecadienal] the “A: number of panels, acid taste/acid smell extreme and cause irritation” value (0.005 ppt) was 10, the “B: number of panels, acid taste/acid smell slightly strong and slightly cause irritation” value (0.005 ppt) was 0 and the “C: number of panels, acid taste/acid smell slightly unpleasant” value (0.005 ppt) was 0. For the same molecule, the “Flavor judgment: number of panels who judged acid taste/acid smell quality the highest” value (0.005 ppt) was 0, the “N: number of panels, irritation of acid reduced to give a mild acid taste” value (0.005 ppt) was 0 and the “X: number of panels, acid taste reduced but piercing odor characteristic to aldehydes unpleasant” value (0.005 ppt) was 0. The “A: number of panels, acid taste/acid smell extreme and cause irritation” value (0.02 ppt) was 10, the “B: number of panels, acid taste/acid smell slightly strong and slightly cause irritation” value (0.02 ppt) was 0 and the “C: number of panels, acid taste/acid smell slightly unpleasant” value (0.02 ppt) was 0. For the same molecule, the “Flavor judgment: number of panels who judged acid taste/acid smell quality the highest” value (0.02 ppt) was 0, the “N: number of panels, irritation of acid reduced to give a mild acid taste” value (0.02 ppt) was 0 and the “X: number of panels, acid taste reduced but piercing odor characteristic to aldehydes unpleasant” value (0.02 ppt) was 0. For the same molecule, the “A: number of panels, acid taste/acid smell extreme and cause irritation” value (0.1 ppt) was 10, the “B: number of panels, acid taste/acid smell slightly strong and slightly cause irritation” value (0.1 ppt) was 0 and the “C: number of panels, acid taste/acid smell slightly unpleasant” value (0.1 ppt) was 0. The “Flavor judgment: number of panels who judged acid taste/acid smell quality the highest” value (0.1 ppt) was 0, the “N: number of panels, irritation of acid reduced to give a mild acid taste” value (0.1 ppt) was 0 and the “X: number of panels, acid taste reduced but piercing odor characteristic to aldehydes unpleasant” value (0.1 ppt) was 0. The “A: number of panels, acid taste/acid smell extreme and cause irritation” value (0.2 ppt) was 9, the “B: number of panels, acid taste/acid smell slightly strong and slightly cause irritation” value (0.2 ppt) was 1 and the “C: number of panels, acid taste/acid smell slightly unpleasant” value (0.2 ppt) was 0. The “Flavor judgment: number of panels who judged acid taste/acid smell quality the highest” value (0.2 ppt) was 0, the “N: number of panels, irritation of acid reduced to give a mild acid taste” value (0.2 ppt) was 0 and the “X: number of panels, acid taste reduced but piercing odor characteristic to aldehydes unpleasant” value (0.2 ppt) was 0. The “A: number of panels, acid taste/acid smell extreme and cause irritation” value (0.5 ppt) was 5, the “B: number of panels, acid taste/acid smell slightly strong and slightly cause irritation” value (0.5 ppt) was 3 and the “C: number of panels, acid taste/acid smell slightly unpleasant” value (0.5 ppt) was 2. The “Flavor judgment: number of panels who judged acid taste/acid smell quality the highest” value (0.5 ppt) was 0, the “N: number of panels, irritation of acid reduced to give a mild acid taste” value (0.5 ppt) was 0 and the “X: number of panels, acid taste reduced but piercing odor characteristic to aldehydes unpleasant” value (0.5 ppt) was 0. For the same molecule, the “A: number of panels, acid taste/acid smell extreme and cause irritation” value (1 ppb) was 0, the “B: number of panels, acid taste/acid smell slightly strong and slightly cause irritation” value (1 ppb) was 0 and the “C: number of panels, acid taste/acid smell slightly unpleasant” value (1 ppb) was 2. For the same molecule, the “Flavor judgment: number of panels who judged acid taste/acid smell quality the highest” value (1 ppb) was 0, the “N: number of panels, irritation of acid reduced to give a mild acid taste” value (1 ppb) was 4 and the “X: number of panels, acid taste reduced but piercing odor characteristic to aldehydes unpleasant” value (1 ppb) was 4. For the same molecule, the “A: number of panels, acid taste/acid smell extreme and cause irritation” value (1 ppt) was 0, the “B: number of panels, acid taste/acid smell slightly strong and slightly cause irritation” value (1 ppt) was 3 and the “C: number of panels, acid taste/acid smell slightly unpleasant” value (1 ppt) was 6. For the same molecule, the “Flavor judgment: number of panels who judged acid taste/acid smell quality the highest” value (1 ppt) was 0, the “N: number of panels, irritation of acid reduced to give a mild acid taste” value (1 ppt) was 1 and the “X: number of panels, acid taste reduced but piercing odor characteristic to aldehydes unpleasant” value (1 ppt) was 0. For the same molecule, the “A: number of panels, acid taste/acid smell extreme and cause irritation” value (5 ppt) was 0, the “B: number of panels, acid taste/acid smell slightly strong and slightly cause irritation” value (5 ppt) was 2 and the “C: number of panels, acid taste/acid smell slightly unpleasant” value (5 ppt) was 2. The “Flavor judgment: number of panels who judged acid taste/acid smell quality the highest” value (5 ppt) was 4, the “N: number of panels, irritation of acid reduced to give a mild acid taste” value (5 ppt) was 6 and the “X: number of panels, acid taste reduced but piercing odor characteristic to aldehydes unpleasant” value (5 ppt) was 0. The “A: number of panels, acid taste/acid smell extreme and cause irritation” value (10 ppb) was 0, the “B: number of panels, acid taste/acid smell slightly strong and slightly cause irritation” value (10 ppb) was 0 and the “C: number of panels, acid taste/acid smell slightly unpleasant” value (10 ppb) was 2. The “Flavor judgment: number of panels who judged acid taste/acid smell quality the highest” value (10 ppb) was 0, the “N: number of panels, irritation of acid reduced to give a mild acid taste” value (10 ppb) was 3 and the “X: number of panels, acid taste reduced but piercing odor characteristic to aldehydes unpleasant” value (10 ppb) was 5. The “A: number of panels, acid taste/acid smell extreme and cause irritation” value (20 ppt) was 0, the “B: number of panels, acid taste/acid smell slightly strong and slightly cause irritation” value (20 ppt) was 1 and the “C: number of panels, acid taste/acid smell slightly unpleasant” value (20 ppt) was 2. For the same molecule, the “Flavor judgment: number of panels who judged acid taste/acid smell quality the highest” value (20 ppt) was 3, the “N: number of panels, irritation of acid reduced to give a mild acid taste” value (20 ppt) was 7 and the “X: number of panels, acid taste reduced but piercing odor characteristic to aldehydes unpleasant” value (20 ppt) was 0. For the same molecule, the “A: number of panels, acid taste/acid smell extreme and cause irritation” value (50 ppb) was 0, the “B: number of panels, acid taste/acid smell slightly strong and slightly cause irritation” value (50 ppb) was 0 and the “C: number of panels, acid taste/acid smell slightly unpleasant” value (50 ppb) was 0. For the same molecule, the “Flavor judgment: number of panels who judged acid taste/acid smell quality the highest” value (50 ppb) was 0, the “N: number of panels, irritation of acid reduced to give a mild acid taste” value (50 ppb) was 2 and the “X: number of panels, acid taste reduced but piercing odor characteristic to aldehydes unpleasant” value (50 ppb) was 8. The “A: number of panels, acid taste/acid smell extreme and cause irritation” value (100 ppt) was 0, the “B: number of panels, acid taste/acid smell slightly strong and slightly cause irritation” value (100 ppt) was 0 and the “C: number of panels, acid taste/acid smell slightly unpleasant” value (100 ppt) was 2. The “Flavor judgment: number of panels who judged acid taste/acid smell quality the highest” value (100 ppt) was 3, the “N: number of panels, irritation of acid reduced to give a mild acid taste” value (100 ppt) was 8 and the “X: number of panels, acid taste reduced but piercing odor characteristic to aldehydes unpleasant” value (100 ppt) was 0. For the same molecule, the “A: number of panels, acid taste/acid smell extreme and cause irritation” value (500 ppt) was 0, the “B: number of panels, acid taste/acid smell slightly strong and slightly cause irritation” value (500 ppt) was 1 and the “C: number of panels, acid taste/acid smell slightly unpleasant” value (500 ppt) was 3. For the same molecule, the “Flavor judgment: number of panels who judged acid taste/acid smell quality the highest” value (500 ppt) was 0, the “N: number of panels, irritation of acid reduced to give a mild acid taste” value (500 ppt) was 4 and the “X: number of panels, acid taste reduced but piercing odor characteristic to aldehydes unpleasant” value (500 ppt) was 2.
